Data taken from ChEMBL document CHEMBL6087406, “2-Arylhydrazinylidene-3-oxo-3-polyfluoroalkylpropanoic acids as selective and effective carboxylesterase inhibitors with powerful antioxidant potential” (Bioorg Med Chem, 2024).
Calls of active or inactive are those of the source. The rule behind the calls is not given here.

How the values were obtained:
Liver carboxylesterase [1] = target: T1, Liver carboxylesterase (Sus scrofa, UniProt Q29550); experiment: Inhibition of porcine liver carboxylesterase using 4-nitrophenylacetate as substrate assessed as release of 4-nitrophenol by spectrophotometric analysis
T1 sequence (Q29550 whole entry): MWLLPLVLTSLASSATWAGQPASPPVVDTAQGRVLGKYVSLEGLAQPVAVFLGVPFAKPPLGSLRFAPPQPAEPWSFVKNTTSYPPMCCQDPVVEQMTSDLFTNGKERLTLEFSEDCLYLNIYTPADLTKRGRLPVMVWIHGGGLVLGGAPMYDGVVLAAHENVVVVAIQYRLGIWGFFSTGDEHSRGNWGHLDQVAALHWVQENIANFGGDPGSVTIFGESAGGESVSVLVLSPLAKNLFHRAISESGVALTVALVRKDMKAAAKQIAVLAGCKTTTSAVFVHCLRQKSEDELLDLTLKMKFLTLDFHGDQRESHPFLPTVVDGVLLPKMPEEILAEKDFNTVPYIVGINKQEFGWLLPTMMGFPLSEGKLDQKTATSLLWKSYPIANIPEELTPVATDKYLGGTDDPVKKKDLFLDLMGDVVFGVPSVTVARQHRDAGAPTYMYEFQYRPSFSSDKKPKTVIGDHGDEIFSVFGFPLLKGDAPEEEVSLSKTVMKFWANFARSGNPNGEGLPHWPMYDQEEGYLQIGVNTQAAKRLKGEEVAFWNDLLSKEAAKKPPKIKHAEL

[2] = target: Acetylcholinesterase (Homo sapiens) (UniProt P22303); experiment: Inhibition of human erythrocyte acetylcholinesterase using acetylthiocholine as substrate at 20 uM by Ellman's method relative to control
Acetylcholinesterase (Homo sapiens), sequence (P22303 whole entry): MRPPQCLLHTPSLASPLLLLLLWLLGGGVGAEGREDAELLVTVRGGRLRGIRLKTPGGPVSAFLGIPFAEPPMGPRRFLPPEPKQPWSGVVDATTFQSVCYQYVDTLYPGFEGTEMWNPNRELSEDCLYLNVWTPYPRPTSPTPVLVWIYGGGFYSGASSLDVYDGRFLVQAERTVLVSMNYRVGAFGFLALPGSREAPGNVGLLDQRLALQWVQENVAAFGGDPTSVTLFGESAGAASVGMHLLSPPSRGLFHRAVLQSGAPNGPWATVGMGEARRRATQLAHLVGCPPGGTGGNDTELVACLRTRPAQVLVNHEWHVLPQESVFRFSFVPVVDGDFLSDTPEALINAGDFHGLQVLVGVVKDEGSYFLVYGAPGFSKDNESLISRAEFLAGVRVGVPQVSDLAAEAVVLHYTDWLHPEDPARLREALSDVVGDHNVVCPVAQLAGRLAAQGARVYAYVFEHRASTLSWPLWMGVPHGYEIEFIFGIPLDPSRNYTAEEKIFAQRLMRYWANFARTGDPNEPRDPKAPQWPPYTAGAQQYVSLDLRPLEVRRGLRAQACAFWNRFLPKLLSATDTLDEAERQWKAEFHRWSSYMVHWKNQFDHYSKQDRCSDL

[3] = target: Cholinesterase (Equus caballus) (UniProt P81908); experiment: Inhibition of equine serum butyrylcholinesterase using butyrylthiocholine as substrate at 20 uM by Ellman's method relative to control
Cholinesterase (Equus caballus), sequence (P81908 whole entry): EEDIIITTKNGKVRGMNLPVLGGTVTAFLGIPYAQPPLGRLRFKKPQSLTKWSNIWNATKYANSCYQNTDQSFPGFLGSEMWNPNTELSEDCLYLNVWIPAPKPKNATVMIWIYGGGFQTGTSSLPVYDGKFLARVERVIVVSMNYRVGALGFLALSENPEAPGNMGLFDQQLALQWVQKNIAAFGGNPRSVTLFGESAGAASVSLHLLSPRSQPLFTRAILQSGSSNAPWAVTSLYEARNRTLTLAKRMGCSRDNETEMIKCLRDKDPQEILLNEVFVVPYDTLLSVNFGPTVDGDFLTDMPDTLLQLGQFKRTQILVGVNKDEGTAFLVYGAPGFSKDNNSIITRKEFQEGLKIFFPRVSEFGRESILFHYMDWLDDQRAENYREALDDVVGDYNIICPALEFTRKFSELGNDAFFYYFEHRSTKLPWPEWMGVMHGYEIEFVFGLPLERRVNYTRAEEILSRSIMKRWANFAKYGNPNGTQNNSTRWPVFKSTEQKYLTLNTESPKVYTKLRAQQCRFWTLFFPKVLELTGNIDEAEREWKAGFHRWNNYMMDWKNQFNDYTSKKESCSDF

[4] = Antioxidant activity assessed as ABTS radical scavenging activity by measuring trolox equivalent antioxidant capacity after 1 hrs by UV/Vis microplate spectrophotometric analysis; assay type: functional
[5] = Antioxidant activity assessed as reduction in ABTS radical measured after 1 hrs by UV/Vis microplate spectrophotometric analysis; assay type: functional
[6] = Antioxidant activity assessed as trolox equivalent of FRAP radical scavenging activity measured after 1 hrs by spectrophotometric analysis; assay type: functional
[7] = Antioxidant activity assessed as trolox equivalent of ORAC radical scavenging activity at 10 uM measured for 2 hrs by AAPH based fluorescence microplate reader; assay type: functional
[8] = Antioxidant activity assessed as ORAC radical scavenging activity by measuring fold change in trolox equivalent at 10 uM measured for 2 hrs by AAPH based fluorescence microplate reader relative to trolox; assay type: functional
Liver carboxylesterase 1 = target: T2, Liver carboxylesterase 1 (Homo sapiens, UniProt P23141); experiment: Inhibition of human CES1 using 4-nitrophenylacetate as substrate assessed as release of 4-nitrophenol by spectrophotometric analysis
T2 sequence (P23141 whole entry): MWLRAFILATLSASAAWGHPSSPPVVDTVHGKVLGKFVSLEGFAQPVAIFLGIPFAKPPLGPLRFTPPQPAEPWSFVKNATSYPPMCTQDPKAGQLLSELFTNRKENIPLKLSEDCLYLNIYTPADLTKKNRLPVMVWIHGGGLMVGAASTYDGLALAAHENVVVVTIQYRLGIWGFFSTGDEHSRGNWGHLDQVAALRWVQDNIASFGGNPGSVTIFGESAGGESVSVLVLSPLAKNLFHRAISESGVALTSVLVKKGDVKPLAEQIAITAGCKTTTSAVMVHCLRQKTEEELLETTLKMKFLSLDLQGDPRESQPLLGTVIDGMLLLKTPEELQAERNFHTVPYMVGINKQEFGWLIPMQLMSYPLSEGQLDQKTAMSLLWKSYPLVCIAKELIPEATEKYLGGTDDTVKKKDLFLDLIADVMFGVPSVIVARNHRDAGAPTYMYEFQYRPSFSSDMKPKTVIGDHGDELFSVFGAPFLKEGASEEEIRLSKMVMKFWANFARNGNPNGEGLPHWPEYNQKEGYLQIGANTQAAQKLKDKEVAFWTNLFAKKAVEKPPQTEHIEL

Cocaine esterase = target: T3, Cocaine esterase (Homo sapiens, UniProt O00748); experiment: Inhibition of human CES2 using 4-nitrophenylacetate as substrate assessed as release of 4-nitrophenol by spectrophotometric analysis
T3 sequence (O00748 whole entry): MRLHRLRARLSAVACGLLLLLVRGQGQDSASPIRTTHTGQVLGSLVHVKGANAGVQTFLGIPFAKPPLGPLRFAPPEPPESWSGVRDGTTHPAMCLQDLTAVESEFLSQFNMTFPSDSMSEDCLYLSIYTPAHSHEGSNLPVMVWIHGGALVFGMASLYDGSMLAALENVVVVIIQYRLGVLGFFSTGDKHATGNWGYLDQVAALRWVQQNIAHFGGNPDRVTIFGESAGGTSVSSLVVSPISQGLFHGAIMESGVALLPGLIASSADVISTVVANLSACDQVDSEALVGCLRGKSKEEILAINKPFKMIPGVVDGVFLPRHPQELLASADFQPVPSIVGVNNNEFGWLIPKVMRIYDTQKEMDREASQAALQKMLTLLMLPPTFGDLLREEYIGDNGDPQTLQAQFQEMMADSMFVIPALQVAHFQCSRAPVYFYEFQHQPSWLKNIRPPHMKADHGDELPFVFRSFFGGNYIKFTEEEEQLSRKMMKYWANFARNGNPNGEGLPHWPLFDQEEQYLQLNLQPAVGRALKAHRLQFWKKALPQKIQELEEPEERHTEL

Liver carboxylesterase [9] = target: T1, Liver carboxylesterase; experiment: Reversible mixed type inhibition of porcine liver carboxylesterase using 4-nitrophenylacetate as substrate assessed as inhibition constant of competitive component by Lineweaver-Burk plot analysis
Liver carboxylesterase [10] = target: T1, Liver carboxylesterase; experiment: Reversible mixed type inhibition of porcine liver carboxylesterase using 4-nitrophenylacetate as substrate assessed as inhibition constant of non-competitive component by Lineweaver-Burk plot analysis
Liver carboxylesterase [11] = target: T1, Liver carboxylesterase; experiment: Inhibition of porcine liver carboxylesterase using 4-nitrophenylacetate as substrate assessed as release of 4-nitrophenol at 20 uM by spectrophotometric analysis relative to control; details: pig, porcine liver carboxylesterase (isolated enzyme), probe 4-nitrophenylacetate
[12] = Antioxidant activity against AAPH-induced oxidative stress in Sprague-Dawley rat erythrocytes assessed as membrane stabilizing activity by measuring hemolysis at 100 uM preincubated for 15 mins followed by AAPH addition and measured after 3 hrs by microplate reader analysis (reference value: 88.6 +/- 3.7%); assay type: functional, Erythrocyte; details: time 195 min, 3.25 h
[13] = Hemolytic activity in AAPH-induced Sprague-Dawley rat erythrocytes assessed as hemolysis at 100 uM measured after 3 hrs by microplate reader analysis relative to control; assay type: toxicity, cell-based, Erythrocyte; details: read-out: Activity
[14] = Antioxidant activity against AAPH-induced oxidative stress in Sprague-Dawley rat erythrocytes assessed as inhibition of lipid peroxidation by measuring fold change at 100 uM preincubated for 15 mins followed by AAPH addition and measured after 3 hrs by TBARS assay (reference value: 1); assay type: functional, Erythrocyte; details: time 195 min, 3.25 h
[15] = Metal chelating activity assessed as Fe2+-compound complex formation by measuring absorbance at 400 uM measured after 30 mins in presence of FeCl2.4H2O by UV-Vis spectroscopic analysis (reference value: 253 to 384 nanometer)
[16] = Metal chelating activity assessed as Fe2+-compound complex formation by measuring absorbance at 400 uM measured after 30 mins in presence of FeCl2.4H2O by UV-Vis spectroscopic analysis (reference value: 245 to 373 nanometer)
[17] = Metal chelating activity assessed as Fe2+-compound complex formation by measuring absorbance at 400 uM measured after 30 mins in presence of FeCl2.4H2O by UV-Vis spectroscopic analysis (reference value: 225 to 374 nanometer)

Compound | IC50 (Liver carboxylesterase [1]) [µM] | inhibition [2] | inhibition [3] | Activity [4] | IC50 [5] [µM] | Activity [6] | Activity [7] | fold change (FC) [8] | also measured
COc1ccc(N/N=C(\C(=O)O)C(=O)C(F)(F)C(F)F)cc1 | 52.1 | 4.2% | 3.5% | 1.8 | 10.2 | 1.9 | 3.73 | > 3 | –
Cc1ccc(N/N=C(\C(=O)O)C(=O)C(F)(F)C(F)(F)C(F)(F)C(F)(F)F)cc1 | 0.042 | 9.8% | inactive | 1.37 | 10.9 | 0.14 | 3.2 | > 3 | IC50 (Liver carboxylesterase 1): 0.102 µM; IC50 (Cocaine esterase): 0.109 µM; Ki (Liver carboxylesterase [9]): 0.018 µM; Ki (Liver carboxylesterase [10]): 0.027 µM
CC(=O)/C(=N/Nc1ccc(C(=O)O)cc1)C(=O)O | – | 5.8% | 8.2% | 1.25 | 10.3 | 0.41 | 2.2 | > 3 | inhibition at 20 µM (Liver carboxylesterase [11]): 18.6%
CCOC(=O)c1ccccc1N/N=C(\C(=O)O)C(=O)C(F)(F)F | – | – | – | – | – | – | – | > 3 | –
COc1ccc(N/N=C(\C(=O)O)C(=O)C(F)(F)C(F)(F)C(F)(F)C(F)(F)F)cc1 | 0.297 | 4.4% | 19.9% | 1.9 | 9.5 | 1.68 | 3.87 | > 3 | –
CC(=O)/C(=N/Nc1ccccc1)C(=O)O | – | 4.7% | inactive | 1.6 | 9.8 | 0.79 | 3.43 | > 3 | inhibition at 20 µM (Liver carboxylesterase [11]): 17.9%
COc1ccc(N/N=C(\C(=O)O)C(=O)C(F)(F)C(F)(F)C(F)(F)F)cc1 | 0.096 | 19.4% | 13.4% | 2.1 | 8.2 | 1.86 | 3.67 | > 3 | Activity [12]: 95.9%; hemolysis at 3 h, 100 µM [13]: 2%; fold change (FC) [14]: 0.63; Activity [15]: 271 nm
Cc1ccc(N/N=C(\C(=O)O)C(=O)C(F)(F)C(F)F)cc1 | 5.58 | inactive | 5.7% | 1.7 | 9.3 | 1.69 | – | > 3 | –
CCOC(=O)c1ccc(N/N=C(\C(=O)O)C(=O)C(F)(F)F)cc1 | – | – | – | – | – | – | – | > 3 | –
Cc1ccc(N/N=C(\C(=O)O)C(=O)C(F)(F)C(F)(F)C(F)(F)F)cc1 | 0.047 | 14.7% | 11.6% | 1.97 | 9.1 | 0.68 | 3.27 | > 3 | –
CC(=O)/C(=N/Nc1ccc(C)cc1)C(=O)O | – | – | – | – | – | 1.69 | 3.37 | > 3 | –
CCOC(=O)c1ccccc1N/N=C(\C(=O)O)C(=O)C(F)(F)C(F)(F)C(F)(F)C(F)(F)F | 0.14 | 24% | 13.7% | 0.02 | – | – | 1.7 | > 3 | –
COc1ccc(N/N=C(/C(C)=O)C(=O)O)cc1 | – | – | – | – | – | 2.5 | 3.67 | > 3 | Activity [12]: 45.6%; hemolysis at 3 h, 100 µM [13]: 2%; fold change (FC) [14]: 0.24; Activity [16]: 263 nm
O=[N+]([O-])c1ccc(OP(=O)(O)Oc2ccc([N+](=O)[O-])cc2)cc1 | – | inactive | inactive | – | – | – | – | – | –
Cc1ccc(N/N=C(\C(=O)O)C(=O)C(F)(F)C(F)(F)F)cc1 | 0.122 | 10.2% | 15.5% | 1.45 | 9.9 | 1.71 | 3.7 | > 3 | –
O=C(O)/C(=N\Nc1ccc([N+](=O)[O-])cc1)C(=O)C(F)(F)F | – | – | – | – | – | 0.24 | – | > 3 | –
COc1ccc(N/N=C(\C(=O)O)C(=O)C(F)(F)F)cc1 | – | – | – | – | – | 2.77 | 3.6 | > 3 | Activity [12]: 58.6%; hemolysis at 3 h, 100 µM [13]: 2%; fold change (FC) [14]: 0.64; Activity [17]: 267 nm
O=C(O)/C(=N\Nc1ccccc1)C(=O)C(F)(F)F | 0.75 | 16.5% | 4% | 1.6 | 8.6 | 1.48 | 3.7 | > 3 | –
CCOC(=O)c1ccc(N/N=C(/C(C)=O)C(=O)O)cc1 | – | inactive | inactive | 1.36 | 10.2 | 0.19 | 0.47 | – | inhibition at 20 µM (Liver carboxylesterase [11]): 16.1%
Cc1ccc(N/N=C(\C(=O)O)C(=O)C(F)(F)F)cc1 | – | – | – | – | – | 2.63 | 3.03 | > 3 | IC50 (Liver carboxylesterase 1): 0.921 µM; IC50 (Cocaine esterase): 0.097 µM
Cc1c(C)c2c(c(C)c1O)CCC(C)(C(=O)O)O2 (configuration not stated) [TROLOX] | – | – | – | 1 | 20.4 | 1 | 1 | – | Activity [12]: 56.7%; fold change (FC) [14]: 0.85
Cc1ccc(N/N=C(\C(=O)O)C(=O)C(F)F)cc1 | – | 10.2% | inactive | 1.67 | 9.8 | 2.1 | 3.13 | > 3 | inhibition at 20 µM (Liver carboxylesterase [11]): 23.8%
